Measurements reported in patent publication US6358521B1, “Fermented milk nutraceuticals” (priority 1993, dated 2002).

Test system: purulent wound infected with Staphylococcus aureus
Assay: Purulent skin-facial wound model infected with Staphylococcus aureus, topical treatment
Assay type: in vivo, Chinchilla rabbits
Method: The effect of topical administration of a fermented milk product prepared as described above was studied using 24 Chinchilla rabbits. Standard skin-facial wounds of about 2×2.5 cm (500 sq. mm) in size were inflicted in the back area of all the rabbits; a skin graft was dissected with subcutaneous fat and fascia up to a muscular layer, wound edges containing subcutaneous muscle were crushed with Kocher's forceps. Following hemeostasis, rabbits were infected by introducing 1 ml microbial suspension containing 1.5×10^9 Staphylococcus aureus into the wound.
All animals were divided into three groups each containing eight rabbits. In group I (test), the animals were treated with the fermented milk. For comparison, rabbits of Group II were treated with Rivanol (Chinosolfabrik, Germany). Group III consisted of control, untreated animals. Treatment was initiated on the third day postinfection. The fermented milk preparations were applied locally using liberally wetted, loosely placed napkins onto the wound followed by application of an aseptic dressing. Animals of the control group were maintained under identical conditions, and were subjected to daily wound sanitation and application of aseptic dressings.
The clinical course of wound healing was controlled based on a number of criteria—nature and amount of the discharge, terms for arresting a perifocal inflammatory reaction, necrolysis terms, emergence of granulations, epithelization, terms of a wound healing. At the same time, the surface area of the wound was measured; cytological, morphological studies of the wound edge and bottom were carried out; and bacteriological studies of wound discharge (prior and during the treatment) were performed. To determine the presence of microbes in sections, the preparations were Gram-Weigart stained. Bacteriological studies were carried out with regard to a rate and duration of Staphylococcus dissemination from a destruction focus. The following quantitative characteristics of dissemination were used: up to 25 colonies on a Petri dish=limited growth; up to 70 colonies=poor growth; up to 200 colonies=abundant growth; and more than 200 colonies=complete growth.
Material from a purulent wound was removed with a calcined and quenched standard loop, 3 mm in diameter, emulsified in 1 ml saline and then plated by 0.05 ml onto Petri dishes of plain agar. The plated material was placed in an incubator at 37° C. for 18-20 hours followed by Staphylococcus aureus colony count.

[1] = local application, treatment from third day postinfection

CCOc1ccc2nc3cc(N)ccc3c(N)c2c1 [Rivanol]
Edge epithelization advent [1]: 15.1 days
Full wound filling with granules [1]: 18.9 days
Full wound healing [1]: 24.7 days
First granulation advent (local application, treatment from third day postinfection, 8 rabbits per group): 7.0 days
Full wound healing, days (first column of that name) (local application, treatment from third day postinfection, column after first granulation advent): 13.5 days
Nature of the cicatrix (study of cicatrices after healing): a more coarse cicatricial tissue prevailed
